In PubChem BioAssay AID700 (NMMLSC, 2007) one finds IC50 data, which are given here for 33 compounds.

For the assay, the system named is bacterial quorum sensing reporter inhibition. Nature of the assay: blockers of quorum-sensing reporter signal in bacteria – dose response (AID 700).

The source made the active and inactive calls. No rule for the calls is given here.

What is called IC50 is the point on the concentration scale where inhibition reaches its midpoint. In the case of `Cc1nn(C(C)(C)C)c(OC(=O)C2CCCC2)c1S(=O)(=O)c1ccccc1`, the IC50 is > 20 µM (inactive). As to `COc1ccc(-c2oc3ncn(CCN4CCOCC4)c(=N)c3c2-c2ccc(OC)cc2)cc1`, the IC50 is > 20 µM (inactive). To `Cn1c(=O)oc2cc(S(=O)(=O)NCCN3CCN(c4ccccc4F)CC3)ccc21` belongs > 20 µM (inactive); to `CCCn1c(=S)[nH]c2cc(C(=O)N3CCN(c4ccccc4OC)CC3)ccc2c1=O`, > 20 µM (inactive); to `CCN1CCCC1CN(Cc1cc2c(C)cc(C)cc2[nH]c1=O)C(=O)NC1CCCCC1` (stereo not drawn), > 20 µM (inactive). Take `Cn1cc(/C=N/n2cnc3sc4c(c3c2=O)CCCC4)c2ccccc21`: the IC50 is > 20 µM (inactive). Turning to `Cc1ccc(C)c2[nH]c(=O)c(CN(CCN3CCCC3)C(=O)Nc3ccc(F)cc3)cc12`, the IC50 was > 20 µM (inactive). Consider `CC1CCCN(C(C(=O)Nc2ccc3c(c2)OCO3)c2ccccc2)C1` (stereo not drawn), for which the concentration for half-maximal inhibition (IC50) was 1.25 µM. As for `CC1CCCN(C(C(=O)Nc2ccc3c(c2)OCCO3)c2ccccc2)C1` (stereo not drawn), the IC50 is > 20 µM (inactive). Regarding `CCCCC(=O)Nc1cc(C)c2c(=O)oc3ccccc3c2n1`, the IC50 is > 20 µM (inactive).

As for `CCc1ccc2[nH]c(=O)c(CN(CCCN3CCOCC3)C(=O)Nc3ccc(Cl)cc3)cc2c1`, the IC50 is > 20 µM (inactive). In the case of `Cc1ccsc1-c1nc(CSCC(=O)N2CCN(c3ccccc3)CC2)c(C)o1` it was 12.4 µM (inactive); in that of `O=C(CSc1n[nH]c(-c2ccco2)n1)Nc1sc2c(c1C(=O)Nc1ccccc1)CCCC2`, 3.32 µM.

As to `Cc1ccc2cc(CN(CCN3CCCC3)C(=O)Nc3ccccc3)c(=O)[nH]c2c1C`, the IC50 was > 20 µM (inactive). In the case of `CC1CCN(S(=O)(=O)c2ccc3c(c2)oc(=O)n3CC(=O)NCc2ccc3c(c2)OCO3)CC1` it was > 20 µM (inactive); in that of `Cc1c(Cl)cccc1Nc1ccccc1C(=O)O`, 1.89 µM; in that of `c1ccc(-c2ccc(C(c3ccccc3)n3ccnc3)cc2)cc1` (stereo not drawn), > 20 µM (inactive).

For `N#Cc1c(NC(=O)COC(=O)C2CC3C=CC2C3)oc(-c2ccccc2)c1-c1ccccc1` (stereo not drawn), the IC50 is 0.68 µM.

As for `Fc1ccc(-c2nnc3ccc(N4CCc5ccccc5C4)nn23)cc1`, the IC50 was > 20 µM (inactive). In the case of `Cc1ccc(C)c2[nH]c(=O)c(CN(CCN3CCCC3)C(=O)Nc3cccc(Cl)c3)cc12` it was 8.19 µM; in that of `Cc1cc(NC(=O)CC(C)(C)C)nc2c1c(=O)oc1ccccc12`, > 20 µM (inactive); in that of `Cc1ccc(Cl)c(Nc2ccccc2C(=O)O)c1Cl`, 3.13 µM.

Consider `COc1ccc(-c2nc(C(N)=O)c3[nH]c(=O)n(-c4cccc(Cl)c4)c3n2)cc1OC`, for which the IC50 was > 20 µM (inactive). In the case of `Cc1cc(NC(=O)C2CCCC2)nc2c1c(=O)oc1ccccc12` it was 18.4 µM (inactive).

As to `CCc1oc2ccccc2c1C(=O)c1ccc(O)cc1`, the half-inhibitory concentration (IC50) is 3.28 µM. On to `CCC(=O)O[C@@H]1CC(=O)O[C@H](C)CC=CC=C[C@@H](O)[C@H](C)C[C@H](CC=O)[C@H](O[C@H]2O[C@H](C)[C@@H](O[C@H]3C[C@@](C)(O)[C@@H](OC(=O)CC)[C@H](C)O3)[C@H](N(C)C)[C@H]2O)[C@H]1OC`, for which the IC50 is 0.55 µM.

With `COc1cccc(-c2cc(C(F)(F)F)nc(NCc3ccco3)n2)c1`, the IC50 is > 20 µM (inactive). As to `O=C(CN1C(=O)CC(c2ccco2)Sc2ccccc21)NCc1ccc2c(c1)OCO2` (stereo not drawn), the IC50 is 16.5 µM (inactive). In the case of `COCCn1nnnc1C(c1cc2cc(OC)ccc2[nH]c1=O)N1CCC(Cc2ccccc2)CC1` (stereo not drawn) it was > 20 µM (inactive). In the case of `COc1ccc(-c2cnc(SCC(=O)Nc3ccc4c(c3)OCO4)n2Cc2ccco2)cc1` it was 16.3 µM (inactive). On to `COC(=O)C1C(=O)C2=C(CC1C)NC(C)=C(C(=O)OC1CCCCC1)C2c1ccc(N(C)C)cc1` (stereo not drawn), for which the IC50 was 9.7 µM. For the compound `Cc1nc2ccccn2c1/C(O)=C1\C(=O)C(=O)N(CCCN(C)C)C1c1ccc(F)cc1` (stereo not drawn), the IC50 was > 20 µM (inactive). With `CCCCc1oc2ccccc2c1C(=O)c1cc(I)c(OCCN(CC)CC)c(I)c1`, the IC50 is > 20 µM (inactive).
